ChEMBL document CHEMBL1155611, “Isolation and structure of the cytotoxin lyngbyabellin B and absolute configuration of lyngbyapeptin A from the marine cyanobacterium Lyngbya majuscula” (J Nat Prod, 2000)
Converted amounts (≈) assume the structure as drawn. The source made the active and inactive calls. The rule behind the calls is not given here.

Assays:
KB = assay: Cytotoxicity against human KB cells; type: functional, cell-based
LoVo = assay: Cytotoxicity against human LoVo cells; type: functional, cell-based

## CC[C@H](C)[C@@H](C(=O)N1CCC[C@H]1c1nccs1)N(C)C(=O)[C@H](CC(C)C)N(C)C(=O)[C@H](Cc1ccc(OC)cc1)N(C)C(=O)/C=C(\C)OC
KB
  Activity: inactive
LoVo
  Activity: inactive

## CC(C)[C@@H]1NC(=O)CNC(=O)[C@@H]2CSC(=N2)[C@H](C(C)(C)O)OC(=O)C(C)(C)[C@H](CCCC(C)(Cl)Cl)OC(=O)c2csc1n2 [LYNGBYABELLIN B]
KB
  IC50: 0.1 mg/L (≈ 0.147 µM)
LoVo
  IC50: 0.83 mg/L (≈ 1.22 µM)
